Experimental data reported in patent US20170065520A1, “STABLE LIPOSOMAL FORMULATIONS OF RAPAMYCIN AND RAPAMYCIN DERIVATIVES FOR TREATING CANCER” (Manli International Ltd, priority 2015, published 2017).

Assay: In vitro drug release assay (dialysis tube, 50 kDal cut-off)
Type: physicochemical
Settings: control formulation (drug in 15% acetonitrile and 85% water), within 48 h
Method: An in vitro drug release assay was used to determine release profiles of umirolimus, sirolimus, and everolimus. Umirolimus-loaded liposomes were prepared as described above in EXAMPLE 1, and sirolimus-loaded and everolimus-loaded liposomes were prepared as described above in EXAMPLE 4.
For each drug, a control formulation was prepared containing 1.0 mg of drug in 5 mL of a solution containing 15% acetonitrile and 85% water. 5 mL of the control formulations and the liposomal formulations for each drug were loaded into separate dialysis tubes having a molecular weight cut-off of 50 kDal.
Each loaded dialysis tube was placed in an individual 50 mL tube containing 40 mL of release media (15% acetonitrile and 0.5% SDS). The release media in each tube was sampled after 1, 2, 5, 7, 24, 30, and 48 h and the drug concentration in the release media was determined by HPLC as described above in EXAMPLE 1. The cumulative drug release percentage versus release time was plotted for all samples. The results are shown in FIGS. 1, 2, and 3 for umirolimus, everolimus, and sirolimus, respectively.

Substance: 40-alkoxyalkyl-rapamycin [umirolimus]
- starting amount of drug diffused out of the dialysis tubing: 67%
